Source: the supplement of paper PMC10307832

Compound: CC[C@H](CO)Nc1nc(NCc2ccccc2)c2ncn(C(C)C)c2n1 [Seliciclib] + CC(=O)Nc1cccc(-n2c(=O)n(C3CC3)c(=O)c3c(Nc4ccc(I)cc4F)n(C)c(=O)c(C)c32)c1 [Trametinib] (partner 0.02 µM)
Assay: relative viability (nuclei count vs DMSO), 5 days (fraction); higher = more cells survive
Outline: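 Cells from lung cancer lines were seeded into 1536-well plates and, one day later, dosed by pin tool. Treatments were either a single drug or a fixed dose of an anchor drug with five library-drug doses (not always all listed) in √10 steps. After 5 days, nuclei were stained in a one-step fixation (final 0.05% Triton X-100, 1% formaldehyde, 1 ug/ml Hoechst) and counted on 4× images, and relative viability is the treated-to-vehicle nuclei ratio, as the median of duplicate plates.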

Row | Cell Line | relative viability (first compound 0.08 µM) | relative viability (first compound 0.253 µM) | relative viability (first compound 0.8 µM) | relative viability (first compound 2.53 µM) | relative viability (first compound 8 µM)
1 | 201T | 0.701 | 0.716 | 0.694 | 0.727 | 0.632
2 | A-427 | 0.767 | 0.816 | 0.797 | 0.678 | 0.586
3 | BEN | 0.976 | 0.809 | 1.1 | 0.991 | 1.04
4 | CAL-12T | 0.367 | 0.337 | 0.324 | 0.257 | 0.2
5 | COR-L23 | 0.577 | 0.464 | 0.577 | 0.566 | 0.471
6 | COR-L 105 | 0.469 | 0.36 | 0.427 | 0.451 | 0.401
7 | ChaGo-K-1 | 0.838 | 0.87 | 0.894 | 0.873 | 0.745
8 | EKVX | 0.373 | 0.252 | 0.286 | 0.31 | 0.328
9 | EMC-BAC-2 | 0.883 | 0.934 | 0.809 | 0.721 | 0.778
10 | EPLC-272H | 0.298 | 0.269 | 0.309 | 0.258 | 0.244
11 | H3255 | 0.629 | 0.52 | 0.652 | 0.631 | 0.494
12 | HARA | 0.675 | 0.719 | 0.565 | 0.828 | 0.44
13 | HCC-15 | 0.393 | 0.343 | 0.369 | 0.37 | 0.357
14 | HCC-44 | 1.09 | 1.17 | 0.999 | 0.933 | 1.06
15 | HCC-78 | 0.737 | 0.94 | 0.746 | 0.83 | 0.513
16 | HCC-366 | 0.332 | 0.253 | 0.368 | 0.317 | 0.239
17 | HCC-827 | 0.494 | 0.519 | 0.525 | 0.533 | 0.365
18 | HOP-62 | 0.377 | 0.302 | 0.377 | 0.418 | 0.431
19 | LC-2-ad | 0.9 | 0.976 | 0.867 | 0.907 | 0.79
20 | LCLC-97TM1 | 0.244 | 0.173 | 0.226 | 0.178 | 0.155
21 | LCLC-103H | 0.666 | 0.711 | 0.647 | 0.681 | 0.682
22 | LK-2 | 0.747 | 0.575 | 0.69 | 0.693 | 0.577
23 | LOU-NH91 |  | 0.702 | 0.786 | 0.745 | 0.752
24 | LU99A | 0.586 | 0.484 | 0.5 | 0.485 | 0.393

Row | Cell Line | relative viability (first compound 0.08 µM) | relative viability (first compound 0.253 µM) | relative viability (first compound 0.8 µM) | relative viability (first compound 2.53 µM) | relative viability (first compound 8 µM)
25 | LXF-289 | 0.65 | 0.725 | 0.646 | 0.661 | 0.627
26 | NCI-H23 | 0.428 | 0.343 | 0.406 | 0.297 | 0.308
27 | NCI-H322M | 0.536 | 0.487 | 0.495 | 0.473 | 0.399
28 | NCI-H358 | 0.137 | 0.124 | 0.143 | 0.104 | 0.0859
29 | NCI-H441 | 0.563 | 0.552 | 0.557 | 0.241 | 0.454
30 | NCI-H460 | 0.176 | 0.137 | 0.132 | 0.115 | 0.102
31 | NCI-H520 | 0.617 | 0.411 | 0.669 | 0.599 | 0.625
32 | NCI-H596 | 0.814 |  | 0.75 | 0.837 | 0.58
33 | NCI-H647 | 0.392 | 0.37 | 0.427 | 0.512 | 0.508
34 | NCI-H650 | 0.96 | 1.08 | 1.01 | 0.863 | 0.877
35 | NCI-H661 | 0.59 | 0.581 | 0.5 | 0.491 | 0.416
36 | NCI-H727 | 0.388 | 0.443 | 0.399 | 0.377 | 0.335
37 | NCI-H838 | 0.516 | 0.485 | 0.523 | 0.449 | 0.451
38 | NCI-H1355 | 0.391 | 0.336 | 0.477 | 0.474 | 0.415
39 | NCI-H1395 | 1.04 | 0.843 | 0.968 |  | 1.04
40 | NCI-H1437 | 0.5 | 0.551 | 0.562 | 0.398 | 0.401
41 | NCI-H1648 | 0.5 | 0.501 | 0.478 | 0.406 | 0.394
42 | NCI-H1650 | 0.572 | 0.69 | 0.471 | 0.433 | 0.422
43 | NCI-H1651 | 0.732 | 0.783 | 0.796 | 0.793 | 0.796
44 | NCI-H1666 | 0.829 | 0.761 | 0.792 | 0.849 | 0.75
45 | NCI-H1734 | 0.717 | 0.528 | 0.677 | 0.664 | 0.572
46 | NCI-H1755 | 0.804 | 0.658 | 0.757 | 0.776 | 0.71
47 | NCI-H1792 | 0.353 | 0.329 | 0.408 |  | 0.372
48 | NCI-H1793 | 0.364 | 0.433 | 0.461 | 0.411 | 0.291

Row | Cell Line | relative viability (first compound 0.08 µM) | relative viability (first compound 0.253 µM) | relative viability (first compound 0.8 µM) | relative viability (first compound 2.53 µM) | relative viability (first compound 8 µM)
49 | NCI-H1915 | 0.315 | 0.277 | 0.307 | 0.292 | 0.288
50 | NCI-H1944 | 0.399 | 0.277 | 0.428 | 0.48 | 0.368
51 | NCI-H1975 | 0.383 | 0.215 | 0.439 | 0.266 | 0.334
52 | NCI-H1993 | 0.649 | 0.543 | 0.47 | 0.508 | 0.43
53 | NCI-H2009 | 0.278 | 0.208 | 0.264 | 0.262 | 0.296
54 | NCI-H2023 | 0.542 | 0.457 | 0.501 | 0.447 | 0.264
55 | NCI-H2085 | 0.509 | 0.475 | 0.513 | 0.41 | 0.343
56 | NCI-H2087 | 0.202 | 0.203 | 0.217 | 0.145 | 0.196
57 | NCI-H2126 | 0.581 | 0.54 | 0.623 | 0.525 | 0.449
58 | NCI-H2170 | 0.85 |  | 0.884 | 0.927 | 0.888
59 | NCI-H2228 | 0.504 | 0.204 | 0.498 | 0.497 | 0.528
60 | NCI-H2347 | 0.259 | 0.323 | 0.331 | 0.278 | 0.279
61 | NCI-H2405 | 0.631 | 0.44 | 0.664 | 0.509 | 0.591
62 | NCI-H3122 | 0.225 | 0.136 | 0.234 | 0.211 | 0.221
63 | PC-3 [JPC-3] | 0.754 | 0.861 | 0.721 | 0.577 | 0.528
64 | PC-14 | 0.788 | 0.529 | 0.719 | 0.721 | 0.532
65 | RERF-LC-KJ | 0.872 | 0.748 | 0.807 | 0.824 | 0.744
66 | SK-LU-1 | 0.548 | 0.426 | 0.54 | 0.601 | 0.415
67 | SK-MES-1 | 0.478 | 0.482 | 0.55 | 0.602 | 0.504
68 | SW 900 | 0.632 | 0.833 | 0.734 | 0.514 | 0.524
69 | SW 1573 | 0.561 | 0.48 | 0.566 | 0.57 | 0.341
70 | UMC-11 | 0.726 | 0.593 | 0.877 | 0.657 | 0.581
